Laboratory results taken from ChEMBL document CHEMBL1201862, “PubChem BioAssay data set” (2004).
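Dose response: 5 concentrations. Exposure: 48 h. Format: 96-well plates. Endpoint: linear interpolation; highest concentration if not reached. At the GI50, growth is halved.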 Activity calls are given as the source filed them. Rule as the data show it: active = GI50 up to about 1.1 µM and inactive = higher.

Assays:
Experiment in all cases: NCI anticancer screen, dose series, 48 h
786-0 = tested on: 786-0
Hs-578T = tested on: Hs-578T
KM12 = tested on: KM12
A498 = tested on: A498
DU-145 = tested on: DU-145
SNB-19 = tested on: SNB-19
SW-620 = tested on: SW-620
CAKI-1 = tested on: CAKI-1
SN12C = tested on: SN12C
HCC 2998 = tested on: HCC 2998
BT-549 = tested on: BT-549
MDA-MB-435 = tested on: MDA-MB-435
IGROV-1 = tested on: IGROV-1
HCT-116 = tested on: HCT-116
OVCAR-8 = tested on: OVCAR-8
UACC-62 = tested on: UACC-62
M14 = tested on: M14
Malme-3M = tested on: Malme-3M
SR = tested on: SR
OVCAR-5 = tested on: OVCAR-5
OVCAR-3 = tested on: OVCAR-3
RPMI-8226 = tested on: RPMI-8226
MDA-N = tested on: MDA-N
RXF 393 = tested on: RXF 393
ACHN = tested on: ACHN
HL-60 = tested on: HL-60
PC-3 = tested on: PC-3
SK-OV-3 = tested on: SK-OV-3
NCI-H226 = tested on: NCI-H226
UO-31 = tested on: UO-31
U-251 = tested on: U-251
LOX IMVI = tested on: LOX IMVI
T47D = tested on: T47D
K562 = tested on: K562
NCI-H23 = tested on: NCI-H23
MOLT-4 = tested on: MOLT-4
SF-295 = tested on: SF-295
MDA-MB-231 = tested on: MDA-MB-231
HCT-15 = tested on: HCT-15
SK-MEL-5 = tested on: SK-MEL-5
NCI/ADR-RES = tested on: NCI/ADR-RES
SK-MEL-2 = tested on: SK-MEL-2
CCRF-CEM = tested on: CCRF-CEM
SK-MEL-28 = tested on: SK-MEL-28
SF-268 = tested on: SF-268
HT-29 = tested on: HT-29
COLO 205 = tested on: COLO 205
UACC-257 = tested on: UACC-257
TK-10 = tested on: TK-10
SF-539 = tested on: SF-539
HOP-62 = tested on: HOP-62
A549 = tested on: A549
OVCAR-4 = tested on: OVCAR-4
NCI-H522 = tested on: NCI-H522
NCI-H460 = tested on: NCI-H460
EKVX = tested on: EKVX
MCF7 = tested on: MCF7
SNB-75 = tested on: SNB-75
HOP-92 = tested on: HOP-92

## CC12Cc3cc4c(cc3C1(c1ccc([N+](=O)[O-])cc1)OCCO2)OCO4 (stereo unspecified)
786-0
  GI50: 47.9 µM (inactive)
Hs-578T
  GI50: 25.5 µM (inactive)
KM12
  GI50: > 100 µM (inactive)
A498
  GI50: > 100 µM (inactive)
DU-145
  GI50: 87.1 µM (inactive)
SNB-19
  GI50: 28.6 µM (inactive)
SW-620
  GI50: > 100 µM (inactive)
CAKI-1
  GI50: > 100 µM (inactive)
SN12C
  GI50: 55.6 µM (inactive)
HCC 2998
  GI50: > 100 µM (inactive)
BT-549
  GI50: 25.5 µM (inactive)
MDA-MB-435
  GI50: > 100 µM (inactive)
IGROV-1
  GI50: 23.1 µM (inactive)
HCT-116
  GI50: 65.3 µM (inactive)
OVCAR-8
  GI50: 22.4 µM (inactive)
UACC-62
  GI50: 36.8 µM (inactive)
M14
  GI50: > 100 µM (inactive)
Malme-3M
  GI50: > 100 µM (inactive)
SR
  GI50: > 100 µM (inactive)
OVCAR-5
  GI50: > 100 µM (inactive)
OVCAR-3
  GI50: > 100 µM (inactive)
RPMI-8226
  GI50: > 100 µM (inactive)
MDA-N
  GI50: > 100 µM (inactive)
RXF 393
  GI50: 16.4 µM (inactive)
ACHN
  GI50: 28 µM (inactive)
HL-60
  GI50: > 100 µM (inactive)
PC-3
  GI50: 97.7 µM (inactive)
SK-OV-3
  GI50: 16.8 µM (inactive)
NCI-H226
  GI50: 26.2 µM (inactive)
UO-31
  GI50: > 100 µM (inactive)
U-251
  GI50: 26.9 µM (inactive)
LOX IMVI
  GI50: > 100 µM (inactive)
T47D
  GI50: > 100 µM (inactive)
K562
  GI50: > 100 µM (inactive)
NCI-H23
  GI50: 42.9 µM (inactive)
MOLT-4
  GI50: > 100 µM (inactive)
SF-295
  GI50: 25.2 µM (inactive)
MDA-MB-231
  GI50: 14.9 µM (inactive)
HCT-15
  GI50: 44.2 µM
SK-MEL-5
  GI50: > 100 µM (inactive)
NCI/ADR-RES
  GI50: 95.5 µM (inactive)
SK-MEL-2
  GI50: 32.2 µM (inactive)
CCRF-CEM
  GI50: > 100 µM (inactive)
SK-MEL-28
  GI50: > 100 µM (inactive)
SF-268
  GI50: 22.8 µM (inactive)
HT-29
  GI50: > 100 µM (inactive)
COLO 205
  GI50: > 100 µM (inactive)
UACC-257
  GI50: > 100 µM (inactive)
TK-10
  GI50: 37.8 µM (inactive)
SF-539
  GI50: 28 µM (inactive)
HOP-62
  GI50: 18.1 µM (inactive)
A549
  GI50: > 100 µM (inactive)
OVCAR-4
  GI50: > 100 µM (inactive)
NCI-H522
  GI50: 91 µM (inactive)
NCI-H460
  GI50: 70.3 µM (inactive)
EKVX
  GI50: 37.2 µM (inactive)
MCF7
  GI50: 76.7 µM (inactive)

## COc1cc(/C=C/C(=O)CC(=O)/C=C/c2cc(OC)c(O)c(OC)c2)cc(OC)c1O
786-0
  GI50: 5.82 µM (inactive)
Hs-578T
  GI50: 7.93 µM (inactive)
KM12
  GI50: 6.15 µM (inactive)
A498
  GI50: 4.93 µM (inactive)
DU-145
  GI50: 7.83 µM (inactive)
SNB-19
  GI50: 7.74 µM (inactive)
SW-620
  GI50: > 25 µM (inactive)
CAKI-1
  GI50: 9.04 µM (inactive)
SN12C
  GI50: 6.68 µM (inactive)
HCC 2998
  GI50: 5.37 µM (inactive)
BT-549
  GI50: 8.95 µM (inactive)
MDA-MB-435
  GI50: 6.17 µM (inactive)
IGROV-1
  GI50: 5.35 µM (inactive)
HCT-116
  GI50: 5.12 µM (inactive)
OVCAR-8
  GI50: 10.4 µM (inactive)
UACC-62
  GI50: 4.22 µM (inactive)
M14
  GI50: 8.61 µM (inactive)
Malme-3M
  GI50: 9.16 µM (inactive)
SR
  GI50: 5.53 µM (inactive)
OVCAR-5
  GI50: 10.3 µM (inactive)
OVCAR-3
  GI50: 6.85 µM (inactive)
RPMI-8226
  GI50: 9.86 µM (inactive)
MDA-N
  GI50: 4.74 µM (inactive)
RXF 393
  GI50: 3.33 µM (inactive)
ACHN
  GI50: 9.31 µM (inactive)
HL-60
  GI50: 16.3 µM (inactive)
PC-3
  GI50: 10.4 µM (inactive)
SK-OV-3
  GI50: 7.94 µM (inactive)
NCI-H226
  GI50: 10.2 µM (inactive)
UO-31
  GI50: > 25 µM (inactive)
U-251
  GI50: 8.11 µM (inactive)
LOX IMVI
  GI50: 7.82 µM (inactive)
T47D
  GI50: 6.5 µM (inactive)
K562
  GI50: 8.69 µM (inactive)
NCI-H23
  GI50: 10.3 µM (inactive)
MOLT-4
  GI50: 6.84 µM (inactive)
SF-295
  GI50: 9.91 µM (inactive)
MDA-MB-231
  GI50: 13.8 µM (inactive)
HCT-15
  GI50: > 25 µM
SK-MEL-5
  GI50: 8.63 µM (inactive)
NCI/ADR-RES
  GI50: > 25 µM (inactive)
SK-MEL-2
  GI50: 7.57 µM (inactive)
CCRF-CEM
  GI50: > 25 µM (inactive)
SK-MEL-28
  GI50: 5.71 µM (inactive)
SF-268
  GI50: 5.37 µM (inactive)
HT-29
  GI50: 7.76 µM (inactive)
SNB-75
  GI50: 3.01 µM (inactive)
COLO 205
  GI50: 10.1 µM (inactive)
UACC-257
  GI50: 8.34 µM (inactive)
TK-10
  GI50: 20.2 µM (inactive)
SF-539
  GI50: 8.77 µM (inactive)
HOP-62
  GI50: 11.7 µM (inactive)
A549
  GI50: 8.26 µM (inactive)
OVCAR-4
  GI50: 23.7 µM (inactive)
NCI-H522
  GI50: 5.81 µM (inactive)
NCI-H460
  GI50: 22.8 µM (inactive)
EKVX
  GI50: 12.6 µM (inactive)
MCF7
  GI50: 14.9 µM (inactive)

## CCC1OC2C(CC=C(C)C)=C3OC(C)(O)C(C)(CC)C(OC(=O)c4ccccc4)C3=C3OC(=O)C=C1C32 (stereo unspecified)
786-0
  GI50: 41.7 µM (inactive)
Hs-578T
  GI50: 23.1 µM (inactive)
KM12
  GI50: 39.9 µM (inactive)
A498
  GI50: 40.3 µM (inactive)
DU-145
  GI50: 32.7 µM (inactive)
SNB-19
  GI50: 23.8 µM (inactive)
SW-620
  GI50: 57.1 µM (inactive)
CAKI-1
  GI50: 36.6 µM (inactive)
SN12C
  GI50: 27.7 µM (inactive)
HCC 2998
  GI50: 21.8 µM (inactive)
BT-549
  GI50: 19.1 µM (inactive)
MDA-MB-435
  GI50: 36.1 µM (inactive)
IGROV-1
  GI50: 50.7 µM (inactive)
HCT-116
  GI50: 32.1 µM (inactive)
OVCAR-8
  GI50: 39.2 µM (inactive)
UACC-62
  GI50: 30.5 µM (inactive)
M14
  GI50: 45.2 µM (inactive)
Malme-3M
  GI50: 39 µM (inactive)
SR
  GI50: 59.8 µM (inactive)
OVCAR-5
  GI50: 54.1 µM (inactive)
OVCAR-3
  GI50: 51.6 µM (inactive)
RPMI-8226
  GI50: 24.7 µM (inactive)
MDA-N
  GI50: 20.5 µM (inactive)
ACHN
  GI50: 39.6 µM (inactive)
HL-60
  GI50: 3.44 µM (inactive)
PC-3
  GI50: 40.1 µM (inactive)
SK-OV-3
  GI50: 56.4 µM (inactive)
UO-31
  GI50: 37.2 µM (inactive)
U-251
  GI50: 67.9 µM (inactive)
LOX IMVI
  GI50: 18.4 µM (inactive)
T47D
  GI50: 29 µM (inactive)
K562
  GI50: 39 µM (inactive)
NCI-H23
  GI50: 35.2 µM (inactive)
MOLT-4
  GI50: 23.1 µM (inactive)
SF-295
  GI50: 34.3 µM (inactive)
MDA-MB-231
  GI50: 22.4 µM (inactive)
HCT-15
  GI50: 38.4 µM
SK-MEL-5
  GI50: 19.8 µM (inactive)
NCI/ADR-RES
  GI50: 36.3 µM (inactive)
SK-MEL-2
  GI50: 22.8 µM (inactive)
CCRF-CEM
  GI50: 59.2 µM (inactive)
SK-MEL-28
  GI50: 83.9 µM (inactive)
SF-268
  GI50: 36 µM (inactive)
HT-29
  GI50: 40.8 µM (inactive)
SNB-75
  GI50: 42.4 µM (inactive)
COLO 205
  GI50: 18.1 µM (inactive)
UACC-257
  GI50: 38.4 µM (inactive)
HOP-92
  GI50: 70 µM (inactive)
TK-10
  GI50: 52 µM (inactive)
SF-539
  GI50: 25.2 µM (inactive)
HOP-62
  GI50: 76.2 µM (inactive)
A549
  GI50: 41.4 µM (inactive)
NCI-H522
  GI50: 18.8 µM (inactive)
NCI-H460
  GI50: 46.9 µM (inactive)
EKVX
  GI50: 31.6 µM (inactive)
MCF7
  GI50: 47.6 µM (inactive)
